{"source": "patent US20120149080A1", "about": "“YEAST PRODUCTION CULTURE FOR THE PRODUCTION OF BUTANOL” (Butamax(TM) Advanced Biofuels LLC, priority 2010, published 2012)", "assay_in_all_cases": "24 h survival (CFU) of non-Saccharomyces yeast, HCD/LCD", "assay_type_in_all_cases": "cell-based", "conditions_in_all_cases": "for Percent Survival HCD: high cell density; for Percent Survival LCD: low cell density", "key": {"Pichia sp. PNY0574": {"system": "Pichia sp. PNY0574", "method": "(§1) Non-Saccharomyces yeast strains were tested to determine whether isobutanol tolerance is affected by cell density for these yeasts. Kluyveromyces marxianus PNY0577 (American Type Culture Collection (“ATCC”), Manassas, Va.; ATCC #8554), Kluyveromyces marxians PNY0578 (ATCC #16045), Pichia membranifaciens PNY0572, Pichia anomala PNY0573, Pichia sp. PNY0574, Issatchenkia orientalis PNY0575 and Issatchenkia orientalis PNY0576 were tested. The Pichia and Issatchenkia strains used are wild-type representatives of the designated genera. Other representative strains are commercially available, for example, from ATCC.\n(§2) The non-Saccharomyces yeast strains were plated from freezer vials onto YPD agar (Teknova, Hollister, Calif.) and incubated overnight at 30° C. Cells from each strain from the YPD plates were inoculated into a 25 ml pre-culture of YPD broth) (Teknova, Hollister, Calif.) with an initial OD600 of 0.06 to 0.08 and grown for 7 hours in an aerobic shaker at 30° C. An aliquot of each pre-culture was inoculated into 200 ml YPD broth, to provide an initial OD600 of 0.06 to 0.08 and the resulting culture was incubated with aeration at 30° C. for approximately 17 hours. The optical density of the culture was measured, the culture was centrifuged and the cells were resuspended to yield an OD600 of 5 in fresh YPD broth. This is referred to as a high cell density (HCD) culture. This culture was diluted 100 fold into fresh YPD broth to give a culture with an OD600 of 0.05. This is referred to as a low cell density (LCD) culture. These cultures were incubated at 30° C. with shaking for 30 minutes for an acclimation period. At the end of the 30 minute acclimation period, the OD600 was measured.\n(§3) 5 ml of low or high cell density culture was dispensed to 15 ml conical tubes which contained the concentrations of isobutanol to be tested. The tubes were placed in a rotary drum at 30° C. and incubated for 24 hours. The isobutanol concentration was 1.0% or 2.0%. A control culture for each strain contained no isobutanol. The time of addition of cells was “time 0”. […] All samples were filtered with Acrodisc CR PTFE 0.2 μm filters (Pall Life Sciences, Port Washington, N.Y.) and analyzed using a Shodex SH1011 column (8 mm ID×300 mm length; Showa Denko America, Inc., New York, N.Y.) and a Shodex SH-G as a guard column. The injection volume was 10 μL. The mobile phase was 0.01N sulfuric acid. The column temperature was 50° C. with a mobile phase flow rate of 0.5 mL/min. For detection, a photometric detector at 210 nm and a refractive index detector were used.\n(§4) Colony forming units (CFUs) were determined on YPD plates at time 0 for the controls and at 24 hours for all samples, including the control cultures, using standard microbiological methods. Essentially, cells were serially diluted in a microtiter plate (20 μl of the culture and 180 μl of YPD broth) and 10 μl of the various dilutions were spotted onto triplicate agar plates and incubated at 30° C. for 24 and 48 hours. Colonies were counted after 48 hours and CFUs/ml were calculated. The percent survival was calculated based on the CFUs/ml of the 24 hour HCD or LCD control culture for each strain and results are given in Table 3."}, "[1]": {"system": "Issatchenkia orientalis PNY0576", "method": "as §1, §2, §3, §4"}, "Pichia anomala PNY0573": {"system": "Pichia anomala PNY0573", "method": "as §1, §2, §3, §4"}, "[2]": {"system": "Kluyveromyces marxianus PNY0578", "method": "as §1, §2, §3, §4"}, "[3]": {"system": "Pichia membranifaciens PNY0572", "method": "as §1, §2, §3, §4"}, "[4]": {"system": "Issatchenkia orientalis PNY0575", "method": "as §1, §2, §3, §4"}, "[5]": {"system": "Kluyveromyces marxianus PNY0577", "method": "as §1, §2, §3, §4"}}, "data": [{"smiles": "CC(C)CO", "note": "[Isobutanol, isobutanol]", "values": [{"measurement": "Percent Survival HCD", "setting": "Pichia sp. PNY0574; PNY0574, 1% isobutanol", "result": 100, "unit": "%"}, {"measurement": "Percent Survival LCD", "setting": "Pichia sp. PNY0574; PNY0574, 1% isobutanol", "result": 10, "unit": "%"}, {"measurement": "Percent Survival HCD", "setting": "Pichia sp. PNY0574; PNY0574, 2% isobutanol", "result": 100, "unit": "%"}, {"measurement": "Percent Survival LCD", "setting": "Pichia sp. PNY0574; PNY0574, 2% isobutanol", "result": 0.5, "unit": "%"}, {"measurement": "Percent Survival HCD", "setting": "[1]; PNY0576, 1% isobutanol", "result": 50, "unit": "%"}, {"measurement": "Percent Survival LCD", "setting": "[1]; PNY0576, 1% isobutanol", "result": 12.8, "unit": "%"}, {"measurement": "Percent Survival HCD", "setting": "[1]; PNY0576, 2% isobutanol", "result": "<0.001", "unit": "%"}, {"measurement": "Percent Survival LCD", "setting": "[1]; PNY0576, 2% isobutanol", "result": "<0.001", "unit": "%"}, {"measurement": "Percent Survival HCD", "setting": "Pichia anomala PNY0573; PNY0573, 1% isobutanol", "result": 75.6, "unit": "%"}, {"measurement": "Percent Survival LCD", "setting": "Pichia anomala PNY0573; PNY0573, 1% isobutanol", "result": 0.1, "unit": "%"}, {"measurement": "Percent Survival HCD", "setting": "Pichia anomala PNY0573; PNY0573, 2% isobutanol", "result": "<0.001", "unit": "%"}, {"measurement": "Percent Survival LCD", "setting": "Pichia anomala PNY0573; PNY0573, 2% isobutanol", "result": "<0.001", "unit": "%"}, {"measurement": "Percent Survival HCD", "setting": "[2]; PNY0578, 1% isobutanol", "result": 51, "unit": "%"}, {"measurement": "Percent Survival LCD", "setting": "[2]; PNY0578, 1% isobutanol", "result": "<0.001", "unit": "%"}, {"measurement": "Percent Survival HCD", "setting": "[2]; PNY0578, 2% isobutanol", "result": "<0.001", "unit": "%"}, {"measurement": "Percent Survival LCD", "setting": "[2]; PNY0578, 2% isobutanol", "result": "<0.001", "unit": "%"}, {"measurement": "Percent Survival HCD", "setting": "[3]; PNY0572, 1% isobutanol", "result": 80.6, "unit": "%"}, {"measurement": "Percent Survival LCD", "setting": "[3]; PNY0572, 1% isobutanol", "result": 2.7, "unit": "%"}, {"measurement": "Percent Survival HCD", "setting": "[3]; PNY0572, 2% isobutanol", "result": "<0.001", "unit": "%"}, {"measurement": "Percent Survival LCD", "setting": "[3]; PNY0572, 2% isobutanol", "result": "<0.001", "unit": "%"}, {"measurement": "Percent Survival HCD", "setting": "[4]; PNY0575, 1% isobutanol", "result": 61.3, "unit": "%"}, {"measurement": "Percent Survival LCD", "setting": "[4]; PNY0575, 1% isobutanol", "result": 3.1, "unit": "%"}, {"measurement": "Percent Survival HCD", "setting": "[4]; PNY0575, 2% isobutanol", "result": "<0.001", "unit": "%"}, {"measurement": "Percent Survival LCD", "setting": "[4]; PNY0575, 2% isobutanol", "result": "<0.001", "unit": "%"}, {"measurement": "Percent Survival HCD", "setting": "[5]; PNY0577, 1% isobutanol", "result": 39.5, "unit": "%"}, {"measurement": "Percent Survival LCD", "setting": "[5]; PNY0577, 1% isobutanol", "result": 0.1, "unit": "%"}, {"measurement": "Percent Survival HCD", "setting": "[5]; PNY0577, 2% isobutanol", "result": "<0.001", "unit": "%"}, {"measurement": "Percent Survival LCD", "setting": "[5]; PNY0577, 2% isobutanol", "result": "<0.001", "unit": "%"}]}]}
